This assay deals with Bromodomain-containing protein 4 (Homo sapiens, UniProt O60885). In words: TR-FRET Assay. The protocol: All assay components were dissolved in buffer composition 20 mM Hepes pH 7.5, 150 mM NaCl, 5 mM DTT, 0.005% Tween 20, and 100 ug/ml BSA for BRD4 (1-477 and 44-460). The final concentrations of the bromodomain proteins are 1.6 nM BRD4(44-168), 1 nM BRD4(333-460), and 1 nM BRD4(1-477 or 44-460), and the fluorescent probe molecule is 100 nM, 50 nM, and 7.5 nM respectively. All proteins were biotinylated. A streptavidin labeled with terbium cryptate (Cisbio SA-Tb) was used as detection, and pre-mixed with the bromodomain protein at a final concentration of 0.2 nM. In some instances for BRD4 (44-460), anti-His terbium cryptate was used as a detection. 7.5 nl of dose-responsed test compound or dmso vehicle (0.0375%) was pre-spotted in a black Corning 384 well plate and 10 ul each of bromodomain/detection reagent and fluorescent small molecule solution were added to the plate, and the reaction incubated for 60 min at room temperature. Plates were then read on EnVision plate reader, (λex=340 nm, acceptor λEm=520 nm, and donor λEm=615 nm, LANCE D400 mirror). Time resolved fluorescence intensity measurements were made at both emissions, and the ratio of acceptor/donor was calculated and used for data analysis.

A word on the IC50: it is the point on the concentration scale where inhibition reaches its midpoint. Read a low IC50 as higher potency. Consider `Cc1nnn(C)c1-c1cnc2c3ccc(C(C)(C)O)cc3n([C@@H](c3ccccc3F)C3CCOCC3)c2c1` [US10112941, Example 65], for which the IC50 was < 5 nM.
